The values below come from patent US8258115B2, “Stable salts of S-adenosylmethionine and process for the preparation thereof” (priority 2007, dated 2012).

Holding throughout (assay type): physicochemical
Data set [1] in a line: Degradation of the active stereoisomer S,S at 40° C. and 75% R.H. How it is done: (§1) In the following Tables 14-25, the percentage values are reported of the degradation of the active stereoisomer S,S calculated at 40° C. and 75% R.H. (Tables 14-19) and at 25° C. and 65% R.H.
Data set [2] can be described thus: Stability test in thermostated heaters at 40° C. and 75% R.H., active ingredient %. Conditions: heat-sealed aluminium/aluminium bags. The method, then:
(§2) In the following Tables 2-13, the percentage values are repotted which were obtained in the stability tests carried out on the products of examples 1-6. The stability tests were carried out in thermostated heaters at 40° C. and 75% R.H (tables 2-7) as well as 25° C. and 60% R.H. (tables 8-13), preserving the samples in heat-sealed aluminium/aluminium bags according to the following criteria: the active ingredient % was determined for every sampling point taken under consideration.

The nature of data set [3]: Stability test in thermostated heaters at 25° C. and 60% R.H., active ingredient %. Particulars: heat-sealed aluminium/aluminium bags. How it is done:
as §2

Data set [4] is described as follows: Degradation of the active stereoisomer S,S at 25° C. and 65% R.H. The method, then: as §1
Data set [5] in a line: Moisture % K.F. of the stability samples. Particulars: sample used in the stability test. How it is done:
In the following Tables 2-13, the percentage values are repotted which were obtained in the stability tests carried out on the products of examples 1-6. The stability tests were carried out in thermostated heaters at 40° C. and 75% R.H (tables 2-7) as well as 25° C. and 60% R.H. (tables 8-13), preserving the samples in heat-sealed aluminium/aluminium bags according to the following criteria: […]

As to `C[S+](CCC(N)C(=O)[O-])C[C@H]1O[C@@H](n2cnc3c(N)ncnc32)[C@H](O)[C@@H]1O.O=S(=O)(O)O.O=S(=O)(O)O.[Cl-].[Cl-].[Mg+2]` (stereo partly shown) [SAMe•2.0H2SO4•1.0MgCl2], the “percentage of active S,S stereoisomer remaining” value in data set [1] (30 days) was found to be 89.3%; in data set [1] (60 days) it was 85.3%; in data set [1] (90 days), 83.3%; in data set [1] (120 days), 89.3%; in data set [1] (180 days), 75.3%; in data set [1] (T = 0), 97.2%. Moreover, the results for the “stability test percentage value (active ingredient %), 30 days” value in data set [2] and in data set [3] were 0.19% and 0.10%, respectively. In addition, the “stability test percentage value (active ingredient %), 60 days” value in data set [2] is recorded as 0.34%. Moreover, the “stability test percentage value (active ingredient %), 90 days” value in data set [2] is given as 0.82%; in data set [3], 0.18%. In addition, the “stability test percentage value (active ingredient %), 120 days” value in data set [2] is recorded as 1.12%. Also, the “stability test percentage value (active ingredient %), 180 days” value in data set [2] came to 1.87%; in data set [3], 0.25%. Besides, the “stability test percentage value (active ingredient %), 360 days” value in data set [3] is listed as 0.49%. In data set [3], the “stability test percentage value (active ingredient %), 720 days” value is 0.62%. Besides, the “percentage of the active S,S stereoisomer remaining” value in data set [4] (30 days) is reported as 96.3%; in data set [4] (90 days), 95.3%; in data set [4] (180 days), 93.3%; in data set [4] (360 days), 91.0%; in data set [4] (720 days) it was 88.0%; in data set [4] (T = 0) it was 97.2%. Moreover, the “Moisture % K.F.” value in data set [5] turned out to be 0.52%.
On to `C[S+](CCC(N)C(=O)[O-])C[C@H]1O[C@@H](n2cnc3c(N)ncnc32)[C@H](O)[C@@H]1O.C[S+](CCC(N)C(=O)[O-])C[C@H]1O[C@@H](n2cnc3c(N)ncnc32)[C@H](O)[C@@H]1O.Cl.O=S(=O)([O-])[O-].[Mg+2]` (stereo partly shown) [SAMe•0.5HCl•0.5MgSO4], for which the “percentage of active S,S stereoisomer remaining” value in data set [1] (30 days) stood at 92.8%; in data set [1] (60 days), 87.8%; in data set [1] (90 days), 84.6%; in data set [1] (120 days) it was 89.6%; in data set [1] (180 days) it was 72.6%; in data set [1] (T = 0), 98.9%. Besides, the “stability test percentage value (active ingredient %), 30 days” value in data set [2] is 0.48%; in data set [3] it was 0.31%. In addition, the “stability test percentage value (active ingredient %), 60 days” value in data set [2] amounted to 0.78%. Also, the “stability test percentage value (active ingredient %), 90 days” value in data set [2] is 1.54%; in data set [3], 0.46%. Besides, the “stability test percentage value (active ingredient %), 120 days” value in data set [2] is 1.98%. Also, the “stability test percentage value (active ingredient %), 180 days” value in data set [2] worked out at 2.78%; in data set [3], 0.77%. Besides, in data set [3], the “stability test percentage value (active ingredient %), 360 days” value came to 0.94%. In addition, the “stability test percentage value (active ingredient %), 720 days” value in data set [3] worked out at 1.19%. Moreover, the “percentage of the active S,S stereoisomer remaining” value turned out to be 97.8% in data set [4] (30 days); 95.8% in data set [4] (90 days); 94.3% in data set [4] (180 days); 91.6% in data set [4] (360 days); 88.2% in data set [4] (720 days); 98.9% in data set [4] (T = 0). Also, in data set [5], the “Moisture % K.F.” value amounted to 0.82%.
`C[S+](CCC(N)C(=O)[O-])C[C@H]1O[C@@H](n2cnc3c(N)ncnc32)[C@H](O)[C@@H]1O.Cl.Cl.[Cl-].[Cl-].[Mg+2]` (stereo partly shown) [SAMe•2.0HCl•1.0MgCl2]: the “percentage of active S,S stereoisomer remaining” value in data set [1] (30 days) amounted to 92.9%; in data set [1] (60 days), 87.8%; in data set [1] (90 days) it was 83.4%; in data set [1] (120 days), 82.1%; in data set [1] (180 days), 78.2%; in data set [1] (T = 0), 97.4%. For the same compound, the “stability test percentage value (active ingredient %), 30 days” value in data set [2] was determined as 0.27%; in data set [3], 0.17%. In addition, the “stability test percentage value (active ingredient %), 60 days” value in data set [2] turned out to be 0.45%. The entries for the “stability test percentage value (active ingredient %), 90 days” value in data set [2] and in data set [3] were 1.14% and 0.37%, respectively. The “stability test percentage value (active ingredient %), 120 days” value in data set [2] is 1.45%. The entries for the “stability test percentage value (active ingredient %), 180 days” value in data set [2] and in data set [3] were 1.89% and 0.58%, respectively. Further, in data set [3], the “stability test percentage value (active ingredient %), 360 days” value amounted to 0.74%. In addition, in data set [3], the “stability test percentage value (active ingredient %), 720 days” value worked out at 0.98%. Also, the “percentage of the active S,S stereoisomer remaining” value in data set [4] (30 days) is on record as 96.6%; in data set [4] (90 days), 95.7%; in data set [4] (180 days) it was 94.7%; in data set [4] (360 days), 92.5%; in data set [4] (720 days), 88.0%; in data set [4] (T = 0), 97.4%. In addition, the “Moisture % K.F.” value in data set [5] turned out to be 0.44%.
Consider `C[S+](CCC(N)C(=O)[O-])C[C@H]1O[C@@H](n2cnc3c(N)ncnc32)[C@H](O)[C@@H]1O.Cl.Cl.O=S(=O)([O-])[O-].[Mg+2]` (stereo partly shown) [SAMe•2.0HCl•1.0MgSO4], for which the “percentage of active S,S stereoisomer remaining” value is given as 89.9% in data set [1] (30 days); 87.9% in data set [1] (60 days); 83.0% in data set [1] (90 days); 79.1% in data set [1] (120 days); 73.3% in data set [1] (180 days); 98.0% in data set [1] (T = 0). The entries for the “stability test percentage value (active ingredient %), 30 days” value in data set [2] and in data set [3] were 0.27% and 0.19%, respectively. The “stability test percentage value (active ingredient %), 60 days” value in data set [2] is on record as 0.49%. In addition, the entries for the “stability test percentage value (active ingredient %), 90 days” value in data set [2] and in data set [3] were 0.67% and 0.28%, respectively. For the same compound, in data set [2], the “stability test percentage value (active ingredient %), 120 days” value is 1.46%. For the same compound, the “stability test percentage value (active ingredient %), 180 days” value in data set [2] is recorded as 1.62%; in data set [3], 0.41%. Also, the “stability test percentage value (active ingredient %), 360 days” value in data set [3] came to 0.65%. Further, the “stability test percentage value (active ingredient %), 720 days” value in data set [3] is 0.87%. Moreover, the “percentage of the active S,S stereoisomer remaining” value was 86.5% in data set [4] (30 days); 95.6% in data set [4] (90 days); 93.0% in data set [4] (180 days); 91.1% in data set [4] (360 days); 88.2% in data set [4] (720 days); 98.0% in data set [4] (T = 0). For the same compound, in data set [5], the “Moisture % K.F.” value is 0.52%.
For `C[S+](CCC(N)C(=O)[O-])C[C@H]1O[C@@H](n2cnc3c(N)ncnc32)[C@H](O)[C@@H]1O.C[S+](CCC(N)C(=O)[O-])C[C@H]1O[C@@H](n2cnc3c(N)ncnc32)[C@H](O)[C@@H]1O.O=S(=O)(O)O.[Ca+2].[Cl-].[Cl-]` (stereo partly shown) [SAMe•0.5H2SO4•0.5CaCl2], the “percentage of active S,S stereoisomer remaining” value in data set [1] (30 days) is reported as 89.8%; in data set [1] (60 days), 86.8%; in data set [1] (90 days), 83.6%; in data set [1] (120 days), 80.6%; in data set [1] (180 days), 77.6%; in data set [1] (T = 0), 98.2%. Moreover, the “stability test percentage value (active ingredient %), 30 days” value in data set [2] came out at 0.48%; in data set [3], 0.23%. Also, the “stability test percentage value (active ingredient %), 60 days” value in data set [2] is given as 0.76%. Besides, the “stability test percentage value (active ingredient %), 90 days” value is reported as 1.48% in data set [2] and 0.35% in data set [3]. Further, the “stability test percentage value (active ingredient %), 120 days” value in data set [2] is 1.98%. For the same compound, the “stability test percentage value (active ingredient %), 180 days” value is recorded as 3.99% in data set [2] and 0.57% in data set [3]. Also, the “stability test percentage value (active ingredient %), 360 days” value in data set [3] turned out to be 0.78%. Also, the “stability test percentage value (active ingredient %), 720 days” value in data set [3] is on record as 0.99%. For the same compound, the “percentage of the active S,S stereoisomer remaining” value in data set [4] (30 days) worked out at 97.8%; in data set [4] (90 days), 96.7%; in data set [4] (180 days) it was 93.6%; in data set [4] (360 days), 90.8%; in data set [4] (720 days), 88.6%; in data set [4] (T = 0), 98.2%. The “Moisture % K.F.” value in data set [5] came to 0.23%.
